In patent publication US8293773B2, “1, 2, 3-triazole derivatives as new cannabinoid-1 receptor antagonists” (National Tsing Hua University, priority 2008, dated 2012):

Molecular target: T1, human CB1 receptor (Homo sapiens, UniProt P21554)
T1 construct: expressed in transfected cells; membrane-enriched fractions
Assay: competitive radioligand binding assay, displacement of [3H]CP55,940, CB1
Conditions: for CB1 Inhibition (%) (10 μM) / inhibition at 10 µM: Table 2, percent inhibition at 10 μM; for IC50: displacement of specific [3H]-CP55940 binding in HEK 293 cells stably transfected with human CB1 receptor
Protocol: In addition, the affinity of test compounds of this invention toward CB1 and CB2 receptors was determined by competitive radioligand binding assays in vitro. This method differentiates the binding strength between compounds by their abilities in displacing a receptor-specific radioactive ligand. […] The readings of the radioactivity retained allow further analysis of receptor binding, and assist in predictions of the pharmacological activities of the test compounds.
In the assays, CB1 receptors are from human CB1 stably expressed cell lines, and CB2 receptors are from human CB2 stably expressed cell lines. For purification of membrane-enriched fractions, cells were scraped off from the culture dishes in ice-cold buffer A (50 mM Tris, 5 mM MgCl2, 2.5 mM EDTA, pH 7.4, 10% sucrose) with 1 mM PMSF. After sonication, the membrane-enriched fractions were centrifuged for 15 minutes at 2,000×g at 4° C. The supernatant was centrifuged again for 30 minutes at 43,000×g at 4° C. The final pellet was re-suspended in buffer A and stored at −80° C. The protein concentration of the purified membrane was determined by the Bradford method as described by the manual provided by Bio-Rad Laboratories, Inc., Hercules, Calif.
During the receptor binding experiments, 0.2˜8 μg of membrane fractions were incubated with 0.75 nM [^3H]CP55,940 and a test compound in the incubation buffer of 50 mM Tris-HCl, 5 mM MgCl2, 1 mM EDTA, 0.3% BSA, pH 7.4. The non-specific binding was determined by using 1 μM of CP55,940. The mixture was incubated for 1.5 hours at 30° C. in Multiscreen microplates (Millipore, Billerica, Mass.). At the completion of the incubation, the reaction was terminated by Manifold filtration and washed with ice-cold wash buffer (50 mM Tris, pH 7.4, 0.25% BSA) four times. The radioactivity bound to the filters was measured by Topcount (Perkin Elmer Inc.).

T1 sequence (P21554 whole entry): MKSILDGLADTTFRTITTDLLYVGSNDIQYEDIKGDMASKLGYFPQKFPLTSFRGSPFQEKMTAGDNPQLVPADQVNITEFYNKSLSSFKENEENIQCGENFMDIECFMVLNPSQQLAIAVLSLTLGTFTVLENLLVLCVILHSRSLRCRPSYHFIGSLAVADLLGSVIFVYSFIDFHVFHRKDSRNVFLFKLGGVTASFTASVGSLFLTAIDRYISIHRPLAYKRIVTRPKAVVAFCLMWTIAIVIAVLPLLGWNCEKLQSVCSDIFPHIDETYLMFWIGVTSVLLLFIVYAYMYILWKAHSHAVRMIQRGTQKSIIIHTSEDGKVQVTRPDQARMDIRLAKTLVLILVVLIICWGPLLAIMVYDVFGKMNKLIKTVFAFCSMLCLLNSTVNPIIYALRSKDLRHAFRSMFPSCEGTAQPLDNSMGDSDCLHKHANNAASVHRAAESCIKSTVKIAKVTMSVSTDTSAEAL

Row | Compound | CB1 Inhibition (%) (10 μM) | inhibition at 10 µM [%] | IC50 [nM]
1 | O=C(NC1CCCCC1)n1nc(-c2ccc(Cl)cc2Cl)c(-c2ccc(Cl)cc2Cl)n1 [Compound 74] | 50.80 |  | 
2 | CCCCCCNC(=O)n1nc(-c2ccc(Cl)cc2Cl)c(-c2ccc(Cl)cc2Cl)n1 [Compound 75] |  | 3.3 | 
3 | Cc1cc(C)cc(NC(=O)n2nc(-c3ccc(Cl)cc3Cl)c(-c3ccc(Cl)cc3Cl)n2)c1 [Compound 76] |  | 12.7 | 
4 | CCCCCCCCNC(=O)n1nc(-c2ccc(Cl)cc2Cl)c(-c2ccc(Cl)cc2Cl)n1 [Compound 77] |  | 27.5 | 
5 | COc1ccc(NC(=O)n2nc(-c3ccc(Cl)cc3Cl)c(-c3ccc(Cl)cc3Cl)n2)cc1 [Compound 78] |  | 6.4 | 
6 | O=C(Nc1ccc(Cl)cc1)n1nc(-c2ccc(Cl)cc2)c(-c2ccc(Cl)cc2)n1 [Compound 79] |  | 1.5 | 
7 | O=C(NC1CCCCC1)n1nc(-c2ccc(Cl)cc2)c(-c2ccc(Cl)cc2)n1 [Compound 80] |  | 29.9 | 
8 | CCCCCCNC(=O)n1nc(-c2ccc(Cl)cc2)c(-c2ccc(Cl)cc2)n1 [Compound 81] |  | 41.5 | 
9 | CCCCCCCCNC(=O)n1nc(-c2ccc(Cl)cc2)c(-c2ccc(Cl)cc2)n1 [Compound 82] |  | 26.9 | 
10 | CCCCC(=O)n1nc(-c2ccc(Cl)cc2)c(-c2ccc(Cl)cc2)n1 [Compound 83] |  | 11.8 | 
11 | CCCCCCCC(=O)n1nc(-c2ccc(Cl)cc2)c(-c2ccc(Cl)cc2)n1 [Compound 84] |  | 21.2 | 
12 | CCCCCCCCC(=O)n1nc(-c2ccc(Cl)cc2)c(-c2ccc(Cl)cc2)n1 [Compound 85] |  | 18.3 | 
13 | CCCCCNC(=O)n1nc(-c2ccc(Cl)cc2)c(-c2ccc(Cl)cc2)n1 [Compound 86] |  | 8.4 | 
14 | CCCCCCCNC(=O)n1nc(-c2ccc(Cl)cc2)c(-c2ccc(Cl)cc2)n1 [Compound 87] |  | 12.9 | 
15 | CCCCCNC(=O)n1nc(-c2ccc(Cl)cc2Cl)c(-c2ccc(Cl)cc2Cl)n1 [Compound 88] |  | 7 | 
16 | CCCCCCCNC(=O)n1nc(-c2ccc(Cl)cc2Cl)c(-c2ccc(Cl)cc2Cl)n1 [Compound 89] |  | 12.9 | 
17 | CCCCCNC(=O)n1nc(-c2ccc(Cl)cc2)c(-c2ccc(Cl)cc2Cl)n1 [Compound 90] |  | 14.4 | 
18 | O=C(NCCc1ccccc1)n1nc(-c2ccc(Cl)cc2Cl)c(-c2ccc(Cl)cc2Cl)n1 [Compound 91] |  | 11.2 | 
19 | CCCCOC(=O)CNC(=O)n1nc(-c2ccc(Cl)cc2Cl)c(-c2ccc(Cl)cc2Cl)n1 [Compound 92] |  | 22.3 | 
20 | O=C(NC1CCCCC1)n1nc(-c2ccc(Cl)cc2)c(-c2ccc(Cl)cc2Cl)n1 [Compound 93] |  | 30.5 | 
21 | CCCCCCNC(=O)n1nc(-c2ccc(Cl)cc2)c(-c2ccc(Cl)cc2Cl)n1 [Compound 94] |  | 10.9 | 

Row | Compound | CB1 Inhibition (%) (10 μM) | inhibition at 10 µM [%] | IC50 [nM]
22 | CCCCCCCNC(=O)n1nc(-c2ccc(Cl)cc2)c(-c2ccc(Cl)cc2Cl)n1 [Compound 95] |  | 14.9 | 
23 | CCCCCCCCNC(=O)n1nc(-c2ccc(Cl)cc2)c(-c2ccc(Cl)cc2Cl)n1 [Compound 96] |  | 17.7 | 
24 | O=C(NC1CCCCC1)n1nc(-c2ccc(Cl)cc2Cl)c(-c2ccc(Cl)cc2Cl)n1 [Compound 97] | 29.20 |  | 
25 | CCCCCCCCNC(=O)n1nc(-c2ccc(Cl)cc2Cl)c(-c2ccc(Cl)cc2Cl)n1 [Compound 98] | 19.40 |  | 
26 | CCCCCCNC(=O)n1nc(-c2ccc(Cl)cc2Cl)c(-c2ccc(Cl)cc2Cl)n1 [Compound 99] | 6.60 |  | 
27 | O=C(NC1CCCCC1)n1nc(-c2ccc(Cl)cc2)c(-c2ccc(Cl)cc2)n1 [Compound 100] | 19.90 |  | 
28 | CCCCCCCCNC(=O)n1nc(-c2ccc(Cl)cc2)c(-c2ccc(Cl)cc2)n1 [Compound 102] | 15.70 |  | 
29 | O=C(NCCc1ccccc1)n1nc(-c2ccc(Cl)cc2)c(-c2ccc(Cl)cc2Cl)n1 [Compound 103] |  | 23.4 | 
30 | CCCCOC(=O)CNC(=O)n1nc(-c2ccc(Cl)cc2)c(-c2ccc(Cl)cc2Cl)n1 [Compound 104] |  | 11.8 | 
31 | O=C(NCc1ccccc1)n1nc(-c2ccc(Cl)cc2)c(-c2ccc(Cl)cc2Cl)n1 [Compound 105] |  | 18.6 | 
32 | O=C(NC12CC3CC(CC(C3)C1)C2)n1nc(-c2ccccc2)c(-c2ccccc2)n1 [Compound 106] |  | 4.8 | 
33 | O=C(NC12CC3CC(CC(C3)C1)C2)n1nc(-c2ccc(Cl)cc2)c(-c2ccc(Cl)cc2)n1 [Compound 107] |  | 19.7 | 
34 | O=C(NC12CC3CC(CC(C3)C1)C2)n1nc(-c2ccc(Cl)cc2)c(-c2ccc(Cl)cc2Cl)n1 [Compound 108] |  | 34.5 | 
35 | CCCCOC(=O)CNC(=O)n1nc(-c2ccc(Cl)cc2)c(-c2ccc(Cl)cc2)n1 [Compound 109] |  | 58.1 | 
36 | CCOC(=O)Cn1nc(-c2ccccc2)c(-c2ccccc2)n1 [Compound 110] |  | 59.1 | 
37 | CCCCOC(=O)Cn1nc(-c2ccc(Cl)cc2)c(-c2ccc(Cl)cc2)n1 [Compound 112] |  | 82.1 | 2810 ± 301
38 | O=C(NC12CC3CC(CC(C3)C1)C2)n1nc(-c2ccc(Cl)cc2Cl)c(-c2ccc(Cl)cc2Cl)n1 [Compound 113] |  | 78.9 | 4500 ± 871
39 | CCCCCCOC(=O)Cn1nc(-c2ccc(Cl)cc2)c(-c2ccc(Cl)cc2Cl)n1 [Compound 114] |  | 39.1 | 
40 | CCCCCCOC(=O)Cn1nc(-c2ccc(Cl)cc2Cl)c(-c2ccc(Cl)cc2Cl)n1 [Compound 115] |  | 72.7 | 4460 ± 698
41 | CCCCCOC(=O)Cn1nc(-c2ccc(Cl)cc2Cl)c(-c2ccc(Cl)cc2Cl)n1 [Compound 116] |  | 76.5 | 2800 ± 544
42 | CCCCCCCOC(=O)Cn1nc(-c2ccc(Cl)cc2Cl)c(-c2ccc(Cl)cc2Cl)n1 [Compound 117] |  | 47.5 | 

Row | Compound | CB1 Inhibition (%) (10 μM) | inhibition at 10 µM [%] | IC50 [nM]
43 | CCCCOC(=O)Cn1nc(-c2ccc(Cl)cc2)c(-c2ccc(Cl)cc2Cl)n1 [Compound 118] |  | 67.4 | 
44 | O=C(Cn1nc(-c2ccc(Cl)cc2Cl)c(-c2ccc(Cl)cc2Cl)n1)NC1CCCCC1 [Compound 119] |  | 74.2 | 
45 | O=C(Cn1nc(-c2ccc(Cl)cc2Cl)c(-c2ccc(Cl)cc2Cl)n1)NN1CCCCC1 [Compound 121] |  | 70.3 | 
46 | O=C(Cn1nc(-c2ccccc2)c(-c2ccccc2)n1)NC1CCCCC1 [Compound 123] |  | 11.6 | 
47 | O=C(Cn1nc(-c2ccc(Cl)cc2Cl)c(-c2ccc(Cl)cc2Cl)n1)Oc1ccccc1 [Compound 124] |  | 14.3 | 
48 | C#CC1(NC(=O)Cn2nc(-c3ccc(Cl)cc3Cl)c(-c3ccc(Cl)cc3Cl)n2)CCCCC1 [Compound 126] |  | 102 | 86.8 ± 1
49 | O=C(Cn1nc(-c2ccc(Cl)cc2Cl)c(-c2ccc(Cl)cc2Cl)n1)N[C@H]1c2ccccc2C[C@H]1O [Compound 127] |  | 89.4 | 1240 ± 697
50 | O=C(Cn1nc(-c2ccc(Cl)cc2Cl)c(-c2ccc(Cl)cc2Cl)n1)N[C@H]1c2ccccc2C[C@H]1OC(=O)Cn1nc(-c2ccc(Cl)cc2Cl)c(-c2ccc(Cl)cc2Cl)n1 [Compound 128] |  | 13.6 | 
51 | O=C(Cn1nc(-c2ccc(Cl)cc2)c(-c2ccc(Cl)cc2Cl)n1)N1CCCCC1 [Compound 129] |  | 76.5 | 587 ± 139
52 | O=C(Cn1nc(-c2ccc(Cl)cc2)c(-c2ccc(Cl)cc2)n1)N1CCCCC1 [Compound 130] |  | 48.6 | 
53 | O=C(Cn1nc(-c2ccc(Cl)cc2Cl)c(-c2ccc(Cl)cc2Cl)n1)N1CCOCC1 [Compound 131] |  | 84.2 | 71.9 ± 16.5
54 | O=C(Cn1nc(-c2ccc(Cl)cc2Cl)c(-c2ccc(Cl)cc2Cl)n1)N[C@H](CO)Cc1ccccc1 [Compound 132] |  | 88.2 | 295 ± 112
55 | C[C@H](NC(=O)Cn1nc(-c2ccc(Cl)cc2Cl)c(-c2ccc(Cl)cc2Cl)n1)C(O)(c1ccccc1)c1ccccc1 [Compound 133] |  | 75.7 | 760 ± 273
56 | COC[C@H](NC(=O)Cn1nc(-c2ccc(Cl)cc2Cl)c(-c2ccc(Cl)cc2Cl)n1)[C@@H](O)c1ccccc1 [Compound 134] |  | 95.9 | 806 ± 346
57 | O=C(Cn1nc(-c2ccc(Cl)cc2Cl)c(-c2ccc(Cl)cc2Cl)n1)N[C@@H](CO)[C@H](O)c1ccc([N+](=O)[O-])cc1 [Compound 135] |  | 60.1 | 
58 | CSc1ccc([C@@H](O)[C@@H](CO)NC(=O)Cn2nc(-c3ccc(Cl)cc3Cl)c(-c3ccc(Cl)cc3Cl)n2)cc1 [Compound 136] |  | 66.3 | 
59 | O=C(Cn1nc(-c2ccc(Cl)cc2Cl)c(-c2ccc(Cl)cc2Cl)n1)N[C@@H](CO)[C@H](O)c1ccccc1 [Compound 137] |  | 59.3 | 
60 | O=C(Cn1nc(-c2ccc(Cl)cc2)c(-c2ccc(Cl)cc2Cl)n1)NC1CCCCC1 [Compound 138] |  |  | 1700 ± 425
61 | COC[C@H](NC(=O)Cn1nc(-c2ccc(Cl)cc2)c(-c2ccc(Cl)cc2Cl)n1)[C@@H](O)c1ccccc1 [Compound 140] |  |  | 1050 ± 256
